Marks after values point to notes of the source that are not given here.
Tests used:
human MATE2 = human MATE2 (Homo sapiens, UniProt Q86VL8); test: cell-based
BCRP [1] = target: T1, BCRP (Homo sapiens, UniProt Q9UNQ0); test: biochemical
T1 sequence (Q9UNQ0 1-655): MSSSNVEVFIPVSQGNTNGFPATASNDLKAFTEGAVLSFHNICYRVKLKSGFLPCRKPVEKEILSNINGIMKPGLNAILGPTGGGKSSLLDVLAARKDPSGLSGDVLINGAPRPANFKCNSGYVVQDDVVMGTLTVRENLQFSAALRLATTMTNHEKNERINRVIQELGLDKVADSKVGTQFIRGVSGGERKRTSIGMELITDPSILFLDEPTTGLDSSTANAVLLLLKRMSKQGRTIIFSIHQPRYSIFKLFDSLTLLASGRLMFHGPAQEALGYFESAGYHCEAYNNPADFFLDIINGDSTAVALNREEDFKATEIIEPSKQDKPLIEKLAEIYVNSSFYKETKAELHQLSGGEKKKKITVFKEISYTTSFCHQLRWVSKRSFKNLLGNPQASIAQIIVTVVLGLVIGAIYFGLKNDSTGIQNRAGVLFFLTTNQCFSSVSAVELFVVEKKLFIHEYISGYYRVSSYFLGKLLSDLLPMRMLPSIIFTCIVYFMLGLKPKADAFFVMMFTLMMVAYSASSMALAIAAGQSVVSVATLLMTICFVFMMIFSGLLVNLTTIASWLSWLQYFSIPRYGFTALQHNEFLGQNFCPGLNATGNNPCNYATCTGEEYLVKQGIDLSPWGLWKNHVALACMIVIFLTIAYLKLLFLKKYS

human OCT1 [2] = target: T2, human OCT1 (Homo sapiens, UniProt O15245); test: cell-based
T2 sequence (O15245 1-554): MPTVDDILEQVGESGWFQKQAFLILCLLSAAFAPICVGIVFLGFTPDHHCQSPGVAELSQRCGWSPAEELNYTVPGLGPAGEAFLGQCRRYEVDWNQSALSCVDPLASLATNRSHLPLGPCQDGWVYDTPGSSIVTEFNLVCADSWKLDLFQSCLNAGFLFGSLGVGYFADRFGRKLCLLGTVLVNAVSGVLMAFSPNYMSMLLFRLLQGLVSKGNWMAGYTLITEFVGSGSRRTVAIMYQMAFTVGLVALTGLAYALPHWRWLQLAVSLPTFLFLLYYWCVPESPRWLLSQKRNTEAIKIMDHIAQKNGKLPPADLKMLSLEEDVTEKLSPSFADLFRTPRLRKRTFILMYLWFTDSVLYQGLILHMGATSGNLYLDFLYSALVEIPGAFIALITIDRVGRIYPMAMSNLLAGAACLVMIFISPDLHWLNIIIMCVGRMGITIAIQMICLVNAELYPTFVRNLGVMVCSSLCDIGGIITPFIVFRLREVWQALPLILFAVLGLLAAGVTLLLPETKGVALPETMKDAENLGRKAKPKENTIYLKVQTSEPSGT

[3] = tested on: transporters at major organ sites; test: Prediction of transporter-mediated inhibition / DDI potential; parameters: species or system human; details: of 11 transporters; FDA criteria
human OAT3 [4] = target: T3, human OAT3 (Homo sapiens, UniProt Q8TCC7); test: cell-based
T3 sequence (Q8TCC7 1-542): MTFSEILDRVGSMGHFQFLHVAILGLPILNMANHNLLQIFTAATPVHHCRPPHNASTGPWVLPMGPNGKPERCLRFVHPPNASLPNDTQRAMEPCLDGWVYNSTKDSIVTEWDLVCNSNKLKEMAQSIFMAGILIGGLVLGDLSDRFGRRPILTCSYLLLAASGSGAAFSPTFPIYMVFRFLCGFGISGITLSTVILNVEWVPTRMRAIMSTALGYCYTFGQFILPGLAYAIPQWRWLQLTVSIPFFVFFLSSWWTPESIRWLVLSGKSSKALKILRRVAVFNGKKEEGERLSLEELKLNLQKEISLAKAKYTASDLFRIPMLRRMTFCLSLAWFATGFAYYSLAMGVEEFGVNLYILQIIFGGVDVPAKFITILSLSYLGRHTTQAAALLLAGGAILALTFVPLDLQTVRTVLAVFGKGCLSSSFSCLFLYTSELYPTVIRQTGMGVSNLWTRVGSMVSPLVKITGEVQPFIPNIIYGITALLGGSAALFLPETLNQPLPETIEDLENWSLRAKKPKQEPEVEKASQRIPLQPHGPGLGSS

human MATE1 = target: T4, human MATE1 (Homo sapiens, UniProt Q96FL8); test: cell-based
T4 sequence (Q96FL8 1-570): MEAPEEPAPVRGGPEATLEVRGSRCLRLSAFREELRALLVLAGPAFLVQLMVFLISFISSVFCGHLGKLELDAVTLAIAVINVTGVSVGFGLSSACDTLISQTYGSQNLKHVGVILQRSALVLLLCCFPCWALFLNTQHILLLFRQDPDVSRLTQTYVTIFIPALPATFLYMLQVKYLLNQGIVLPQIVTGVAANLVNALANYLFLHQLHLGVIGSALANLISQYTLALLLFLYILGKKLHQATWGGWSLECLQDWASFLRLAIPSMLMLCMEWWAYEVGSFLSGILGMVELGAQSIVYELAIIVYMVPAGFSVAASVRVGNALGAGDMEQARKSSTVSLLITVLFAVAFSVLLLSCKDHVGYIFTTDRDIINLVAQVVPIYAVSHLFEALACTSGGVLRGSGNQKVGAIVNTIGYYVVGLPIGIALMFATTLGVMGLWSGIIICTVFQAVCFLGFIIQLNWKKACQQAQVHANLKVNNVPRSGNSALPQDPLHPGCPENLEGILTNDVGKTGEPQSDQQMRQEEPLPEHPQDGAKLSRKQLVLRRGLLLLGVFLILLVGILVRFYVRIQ

P-gp = P-gp (Homo sapiens, UniProt P08183); test: biochemical
[5] = known in vivo P-gp inhibitor; cited from earlier work
human OAT1 = target: T5, human OAT1 (Homo sapiens, UniProt Q4U2R8); test: cell-based
T5 sequence (Q4U2R8 1-563): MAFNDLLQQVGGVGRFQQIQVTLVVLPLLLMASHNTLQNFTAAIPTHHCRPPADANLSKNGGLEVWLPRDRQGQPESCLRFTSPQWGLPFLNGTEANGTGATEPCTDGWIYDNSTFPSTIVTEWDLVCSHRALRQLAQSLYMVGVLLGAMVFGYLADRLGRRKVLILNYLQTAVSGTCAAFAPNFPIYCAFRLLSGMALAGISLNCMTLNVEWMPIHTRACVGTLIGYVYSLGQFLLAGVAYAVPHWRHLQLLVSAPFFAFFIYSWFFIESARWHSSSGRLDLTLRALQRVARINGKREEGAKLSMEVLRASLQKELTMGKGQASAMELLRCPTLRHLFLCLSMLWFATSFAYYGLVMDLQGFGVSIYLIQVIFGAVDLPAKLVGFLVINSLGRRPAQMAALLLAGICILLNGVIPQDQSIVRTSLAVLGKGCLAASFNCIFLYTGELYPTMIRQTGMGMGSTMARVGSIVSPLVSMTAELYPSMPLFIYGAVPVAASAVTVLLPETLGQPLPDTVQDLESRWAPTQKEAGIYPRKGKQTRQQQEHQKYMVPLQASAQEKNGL

human OATP2B1 = target: T6, human OATP2B1 (Homo sapiens, UniProt O94956); test: cell-based; details: IC50 OATP2B1, experimental, mean ± SD; stable cells; substrate ES
T6 sequence (O94956 1-709): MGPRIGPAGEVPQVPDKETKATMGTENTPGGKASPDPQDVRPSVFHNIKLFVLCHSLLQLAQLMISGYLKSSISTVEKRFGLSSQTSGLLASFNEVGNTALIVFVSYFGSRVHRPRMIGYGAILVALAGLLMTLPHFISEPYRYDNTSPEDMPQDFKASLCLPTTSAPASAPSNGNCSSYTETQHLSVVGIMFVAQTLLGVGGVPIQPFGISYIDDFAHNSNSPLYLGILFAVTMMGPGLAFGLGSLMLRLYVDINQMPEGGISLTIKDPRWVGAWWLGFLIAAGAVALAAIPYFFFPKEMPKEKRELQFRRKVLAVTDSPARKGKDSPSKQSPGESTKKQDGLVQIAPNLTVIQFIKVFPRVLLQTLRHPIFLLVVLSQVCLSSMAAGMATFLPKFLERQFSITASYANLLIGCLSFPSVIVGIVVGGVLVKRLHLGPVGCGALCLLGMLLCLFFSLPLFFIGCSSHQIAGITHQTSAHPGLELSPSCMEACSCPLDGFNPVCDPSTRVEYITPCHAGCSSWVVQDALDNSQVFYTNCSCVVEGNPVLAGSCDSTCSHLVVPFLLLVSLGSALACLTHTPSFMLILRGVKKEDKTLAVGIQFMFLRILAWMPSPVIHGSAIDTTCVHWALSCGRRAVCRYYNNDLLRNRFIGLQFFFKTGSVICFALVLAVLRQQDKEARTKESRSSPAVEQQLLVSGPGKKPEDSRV

human OATP1B1 = target: T7, human OATP1B1 (Homo sapiens, UniProt Q9Y6L6); details: inhibits EG at one-tenth (or lower) the concentration that inhibits ES
T7 sequence (Q9Y6L6 1-691): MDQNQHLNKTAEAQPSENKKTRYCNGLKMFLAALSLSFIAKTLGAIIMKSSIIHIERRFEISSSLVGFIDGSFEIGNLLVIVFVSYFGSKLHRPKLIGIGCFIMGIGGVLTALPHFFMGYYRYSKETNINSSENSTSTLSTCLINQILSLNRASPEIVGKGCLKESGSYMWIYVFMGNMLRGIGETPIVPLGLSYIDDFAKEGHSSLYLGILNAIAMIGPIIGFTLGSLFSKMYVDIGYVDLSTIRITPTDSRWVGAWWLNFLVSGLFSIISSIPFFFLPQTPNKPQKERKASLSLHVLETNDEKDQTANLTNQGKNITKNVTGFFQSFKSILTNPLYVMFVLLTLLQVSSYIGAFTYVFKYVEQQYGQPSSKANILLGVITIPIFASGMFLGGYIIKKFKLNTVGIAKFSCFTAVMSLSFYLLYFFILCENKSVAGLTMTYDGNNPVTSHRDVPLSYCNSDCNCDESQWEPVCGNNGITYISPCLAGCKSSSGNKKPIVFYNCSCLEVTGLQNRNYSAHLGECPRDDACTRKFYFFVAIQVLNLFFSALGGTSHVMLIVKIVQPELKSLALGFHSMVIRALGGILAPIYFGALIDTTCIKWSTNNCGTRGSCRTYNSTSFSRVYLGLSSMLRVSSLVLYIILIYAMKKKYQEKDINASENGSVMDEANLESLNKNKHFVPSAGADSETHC

human OAT3 [6] = target: T3, human OAT3; details: human
human OCT1 [7] = target: T2, human OCT1; details: human
BCRP [8] = target: T1, BCRP; details: cited from earlier work

Chain of P-gp (P08183 whole entry): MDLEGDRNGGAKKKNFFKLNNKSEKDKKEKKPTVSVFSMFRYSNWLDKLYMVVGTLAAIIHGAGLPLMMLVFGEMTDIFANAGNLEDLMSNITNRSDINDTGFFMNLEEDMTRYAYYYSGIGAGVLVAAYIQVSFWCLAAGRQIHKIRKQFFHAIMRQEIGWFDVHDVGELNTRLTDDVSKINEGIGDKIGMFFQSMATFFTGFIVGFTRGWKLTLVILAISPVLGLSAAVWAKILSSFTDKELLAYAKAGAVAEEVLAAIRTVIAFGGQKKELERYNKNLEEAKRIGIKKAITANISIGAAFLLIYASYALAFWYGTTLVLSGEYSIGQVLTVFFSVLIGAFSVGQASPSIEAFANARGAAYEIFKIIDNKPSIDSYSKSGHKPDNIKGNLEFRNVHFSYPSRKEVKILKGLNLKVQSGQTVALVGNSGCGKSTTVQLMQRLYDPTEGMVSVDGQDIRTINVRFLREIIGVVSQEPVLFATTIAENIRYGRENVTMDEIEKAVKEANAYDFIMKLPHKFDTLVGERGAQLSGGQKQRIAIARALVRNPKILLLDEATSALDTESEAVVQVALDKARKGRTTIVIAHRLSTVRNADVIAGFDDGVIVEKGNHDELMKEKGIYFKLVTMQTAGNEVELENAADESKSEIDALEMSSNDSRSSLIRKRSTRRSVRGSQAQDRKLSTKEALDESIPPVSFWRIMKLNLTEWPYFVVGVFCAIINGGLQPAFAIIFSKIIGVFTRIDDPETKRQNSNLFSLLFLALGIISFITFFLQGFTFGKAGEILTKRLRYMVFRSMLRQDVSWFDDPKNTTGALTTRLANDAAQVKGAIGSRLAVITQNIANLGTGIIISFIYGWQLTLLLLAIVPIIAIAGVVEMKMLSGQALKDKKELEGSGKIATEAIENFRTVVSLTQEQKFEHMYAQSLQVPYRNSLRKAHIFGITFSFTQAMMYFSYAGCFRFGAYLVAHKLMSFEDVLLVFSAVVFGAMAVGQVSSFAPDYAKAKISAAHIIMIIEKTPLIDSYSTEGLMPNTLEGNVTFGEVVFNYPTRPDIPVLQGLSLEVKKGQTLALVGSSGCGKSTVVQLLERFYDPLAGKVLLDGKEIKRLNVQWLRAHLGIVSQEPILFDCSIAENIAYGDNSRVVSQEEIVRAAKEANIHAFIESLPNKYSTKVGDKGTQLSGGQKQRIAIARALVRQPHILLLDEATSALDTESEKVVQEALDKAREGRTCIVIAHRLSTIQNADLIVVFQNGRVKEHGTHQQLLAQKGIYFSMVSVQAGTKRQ
Chain of human MATE2 (Q86VL8 1-566 isoform Q86VL8-3): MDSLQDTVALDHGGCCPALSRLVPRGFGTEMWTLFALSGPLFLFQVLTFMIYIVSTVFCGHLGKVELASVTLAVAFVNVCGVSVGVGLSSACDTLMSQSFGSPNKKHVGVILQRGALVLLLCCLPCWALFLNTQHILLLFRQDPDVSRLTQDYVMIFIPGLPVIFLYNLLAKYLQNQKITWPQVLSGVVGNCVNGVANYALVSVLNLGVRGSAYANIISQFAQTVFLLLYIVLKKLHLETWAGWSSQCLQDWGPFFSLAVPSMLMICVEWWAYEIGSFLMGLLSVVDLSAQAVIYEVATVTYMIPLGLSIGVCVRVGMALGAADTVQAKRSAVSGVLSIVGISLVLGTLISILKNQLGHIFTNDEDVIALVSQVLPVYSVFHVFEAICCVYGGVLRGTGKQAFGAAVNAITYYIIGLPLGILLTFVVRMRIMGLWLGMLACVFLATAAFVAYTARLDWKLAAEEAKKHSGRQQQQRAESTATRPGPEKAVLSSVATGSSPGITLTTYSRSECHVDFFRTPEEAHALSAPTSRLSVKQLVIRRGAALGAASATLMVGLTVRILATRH

CC[C@H]1OC(=O)[C@H](C)[C@@H](O[C@H]2C[C@@](C)(OC)[C@@H](O)[C@H](C)O2)[C@H](C)[C@@H](O[C@@H]2O[C@H](C)C[C@H](N(C)C)[C@H]2O)[C@](C)(O)C[C@@H](C)CN(C)[C@H](C)[C@@H](O)[C@]1(C)O [Azithromycin]
IC50 (human MATE2): > 50 µM
IC50 (BCRP [1]): > 50 µM
IC50 (human OCT1 [2]): > 50 µM
No. of transporters at major organ sites inhibited at clinical concentrations [3]: 1
IC50 (human OAT3 [4]): > 50 µM
IC50 (human MATE1): > 50 µM
IC50 (P-gp): 18 µM
effect on plasma levels of P-gp substrates [5]: increases plasma levels of the non‐sedating antihistamine, fexofenadine, and the anticoagulant, ximelagatran
IC50 (human OAT1): > 50 µM

Cc1oncc1C(=O)Nc1ccc(C(F)(F)F)cc1 [Leflunomide]
IC50 (human OCT1 [2]): > 100 µM
IC50 (human OATP2B1): 81.9 ± 36.1 µM
No. of transporters at major organ sites inhibited at clinical concentrations [3]: 2
IC50 (human MATE1): 9.5 ± 5.5 µM
IC50 (P-gp): > 100 µM
IC50 (human OAT1): > 100 µM

CCCCc1nc(Cl)c(CO)n1Cc1ccc(-c2ccccc2-c2nn[nH]n2)cc1 [Losartan]
potency difference of the inhibitor for [3H]-EG vs [3H]-ES as OATP1B1 probes (human OATP1B1): > 10 fold
IC50 (human MATE2): > 100 µM
IC50 (BCRP [1]): 4.8 ± 1.1 µM
IC50 (human OCT1 [2]): > 100 µM
Cu,max/IC50 OAT3 (human OAT3 [6]): 0.02 ^a
IC50 (human OATP2B1): 2.5 ± 0.7 µM
No. of transporters at major organ sites inhibited at clinical concentrations [3]: 4
IC50 (P-gp): > 100 µM

COc1ccc2cc1Oc1ccc(cc1)C[C@H]1c3cc(c(OC)cc3CCN1C)Oc1c(OC)c(OC)cc3c1[C@H](C2)N(C)CC3 [Tetrandrine]
IC50 (human MATE2): > 10 µM
IC50 (BCRP [1]): > 10 µM
IC50 (human OCT1 [2]): 8.6 µM
Iu,in,max/IC50 OCT1 (human OCT1 [7]): 0.02
No. of transporters at major organ sites inhibited at clinical concentrations [3]: 1
IC50 (human OAT3 [4]): > 10 µM
IC50 (human MATE1): 1.2 ± 0.2 µM
IC50 (P-gp): 3.8 ± 1.1 µM
IC50 (human OAT1): > 10 µM

CN1CC(=O)N2[C@H](c3ccc4c(c3)OCO4)c3[nH]c4ccccc4c3C[C@@H]2C1=O [tadalafil]
inhibition of BCRP (in words) (BCRP [8]): weak inhibitors of BCRP

CCCc1nc(C)c2c(=O)[nH]c(-c3cc(S(=O)(=O)N4CCN(CC)CC4)ccc3OCC)nn12 [vardenafil]
inhibition of BCRP (in words) (BCRP [8]): weak inhibitors of BCRP
